Experimental data: patent US6093723A, “4-substituted beta-carbolines and analogs thereof” (Boehringer Ingelheim Pharmaceuticals, Inc., priority 1997, dated 2000)
Like-named read-outs stand apart in the source and are kept apart here.

Key:
[1] = test system: IL-2 production in CD3+/CD4+ cells; assay: IL-2 production assay, Protocol A (ionomycin and PMA as stimuli); format: cell-based; details: human CD3+/CD4+ cells, ionomycin 1 μg/ml and PMA 10 ng/ml, 16 hr
Experimental: Protocol A (ionomycin and […] as stimuli)
Human peripheral blood is obtained from healthy donors by venipuncture and the mononuclear cell fraction is prepared by centrifugation on Ficoll Hypaque (Phamacia) density gradients. Contaminating red blood cells are lysed and the CD3+/CD4+ cells are purified using immunoaffinity columns (R&D Systems or CellPro). The cells are resuspended and dispensed in 96 well microtiter plates. Test compounds are added to the cells approximately 15 minutes prior to stimulation with ionomycin (1 μg/ml) and PMA (10 ng/ml). The final volume of the assay is 100 μL. Following a 16 hr incubation at 37° C., the cells are pelleted by centrifugation, and the supernatants are collected and stored at -70° C. until assayed for IL-2 using a commercial ELISA kit (Genzyme).

[2] = test system: IL-2 production in T lymphocytes (CD3+/CD4+ cells); assay: IL-2 production assay, Protocol B (antiCD3/antiCD28 as stimuli); format: cell-based; details: T-lymphocyte; human T lymphocytes, anti-CD3/anti-CD28 and goat anti-mouse coated beads, 16 hour
Experimental: Protocol B (antiCD3/antiCD28 as stimuli)
Human peripheral blood is obtained from healthy donors by venipuncture and the mononuclear cell fraction is prepared by centrifugation on Ficoll Hypaque (Phamacia) density gradients. Contaminating red blood cells are lysed and the CD3+/CD4+ cells are purified using immunoaffinity columns (R&D Systems or CellPro). The T lymphocytes are plated at 1-1.5×10^5 cells/well in a 96 well microtiter plate, and incubated with serial dilutions of compounds for 20 minutes at 37° C. The T cells are activated by the addition of 0.6 ng/ml anti-CD3 (Immunotech), 500 ng/ml anti-CD28 (Biodesign) and 2×10^5 goat anti-mouse coated beads (Dynal). The final volume of the assay is 200 μl. Following a 16 hour incubation at 37° C., the cells are pelleted, and the supernatants are removed and collected and stored at -70° C. until assayed for interleukin-2 using a commercial ELISA kit (R&D Systems).

[3] = test system: Ca^+2 influx in Jurkat cells (clone E6-1); assay: Calcium influx assay (thapsigargin-stimulated, Fluo-3); format: cell-based; details: Homo sapiens; Jurkat cells clone E6-1, thapsigargin 100 nM, 10 min preincubation
Experimental: Jurkat cells (clone E6-1) are pelleted by centrifugation, washed twice, and resuspended in RPMI 1640 containing, […], 1 % fetal calf serum, 3 μM Fluo-3-AM, 13.5 μl/ml Pluronic F 127 (Molecular Probes) and incubated for 1 hour at 37° C. The loaded cells are washed twice in Hanks Balanced Salt Solution containing 10 mM HEPES. The cells are resuspended in HBSS containing 10 mM HEPES, and dispensed into 96-well Dynatech black microtiter plates at 2×10^5 cells/well. The cells are preincubated with compounds for 10 minutes at room temperature. Baseline fluorescence of unstimulated cells is measured using an SLT fluorescent microtiter plate reader with an excitation wavelength of 495 nm and emission wavelength of 538 nm. Thapsigargin is then added to a final concentration of 100 nM. Following a 5 minute incubation, fluorescence of thapsigargin treated cells is measured. Delta fluorescence values are determined by subtracting baseline fluorescence values from thapsigargin induced fluorescence values.

IL-2 promoter = IL-2 promoter assay (luciferase reporter in Jurkat cells); format: cell-based; details: Homo sapiens
Source text: All the known regulatory features of IL-2 gene are contained within a ~300 bp sequence immediately upstream of the open reading frame. […] The resulting construct, pIL2P-luc, and a vector containing a neomycin resistance gene, pcDNA/Neo (Invitrogen), are linearized and stably transfected into Jurkat cells (a human T cell line) by electroporation.
For screening compounds, the cells are pelleted by centrifugation, washed once with PBS, resuspended in RPMI (phenol red-free) containing 5% FBS, and dispensed into 96-well, white microtiter plates (Packard) at 50,000 cells/well. The cells are pre-incubated with compounds (1 μg/ml) for 15 min prior to addition of ionomycin (1 μg/ml) and PMA (10 ng/ml) in a final volume of 100 μl. Following a 5 hr incubation at 37° C. in a humidified incubator, 100 μl of Luc-Lite lysis buffer/luciferase assay buffer (Promega) is added and luminescence measured using a Packard TopCount scintillation counter/luminometer.

[4] = test system: allogeneic cell transplant response (T-cell-mediated immune response, popliteal lymph node); assay: Allogeneic cell transplant response in mice (popliteal lymph node weight); format: in vivo, mice (DBA donors, C57B1/6 recipients); details: 1 mg/kg, dosed one hour prior to cell injection and daily thereafter, ~four days
Source text: Allogeneic Cell Transplant Response in Mice
The ability of cells to recognize other cells from self or from another genetically different individual (non-self) is an important property in maintaining the integrity of tissue and organ structure. The allogeneic cell transplant response is therefore an important model for studies of transplant rejection. This T-cell-mediated immune response can be induced in adult mice by the injection of lymphocytes from an histoincompatible mouse strain. This response is characterized by T cell proliferation which is limited to the popliteal lymph node that receives drainage from the footpad area. No in vitro system exists that can exactly duplicate completely this in vivo response. The assay is commonly used to evaluate new and novel potential immunosuppressive molecules.
Experiments are conducted using male or female mice (20-26 grams). Any histoincompatible mouse strains suffice for donor and recipient populations. Typically DBA mice are used as donors and C57B1/6 mice are used as recipients. A minimum of 1 week stabilization and conditioning period is usually required before use of the mice. Each study utilizes approximately 36 recipient mice divided into groups of 6.
Donor mice are sacrificed by CO2 asphyxiation and spleens are removed and a cell suspension is prepared. The cell suspension (1.0×10^7/metatarsal in 0.05 ml) is injected I.D. into the dorsal metatarsal skin of recipient mice. Four days later, the animals are sacrificed by CO2 asphyxiation and the popliteal nodes are removed and weighed. Groups of mice receiving putative immunosuppressive agents are dosed subcutaneously,intraperitoneally or orally one hour prior to cell injection and daily thereafter. The tests last approximately four days. The assay involves no footpad swelling and only a moderate increase in the size of the popliteal lymph node. Student's t test is used to determine significant differences between popliteal lymph nodes of groups of untreated mice and those mice treated with putative immunosuppressive agents.

[5] = Jurkat luciferase reporter cells, ionomycin 1 μg/ml and PMA 10 ng/ml, 5 hr, read-out: IL-2 PROMOTER IC50

Row | SMILES | IC50 [1] [µM] | IC50 [2] [µM] | IC50 [3] [nM] | IC50 (IL-2 promoter; [5]) [nM] | ALLOGENEIC CELL TRANSPLANT % [4] [%] | IC50 (IL-2 promoter; Jurkat, read-out: inhibition of luciferase activity, IC50) [nM]
1 | COc1ccc(-c2cncc3c2c2ccccc2n3C)cc1 [Compound 8] | > 20 | 7.4 | 2200 |  |  | 
2 | COc1ccc2c(c1)[nH]c1cncc(-c3ccc(C)cc3)c12 [Compound 22] |  | 5.8 | 1700 |  |  | 
3 | Cc1ccc(-c2cncc3[nH]c4ccccc4c23)cc1 [Compound 1, 4-(p-Methylphenyl)-β-carboline] | 2 | 6.2 | 300 | 1500 | 38 | 
4 | c1ccc(Cc2cncc3[nH]c4ccccc4c23)cc1 [Compound 37] |  | > 25 | 2200 |  |  | 
5 | OCc1ccc(-c2cncc3[nH]c4ccccc4c23)cc1 [Compound 23] |  |  | 15200 |  |  | 
6 | CC(C)c1ccc(-c2cncc3[nH]c4ccccc4c23)cc1 [Compound 20] |  | 1.1 | 300 |  |  | 
7 | Cc1ccc(-c2cncc3[nH]c4ccccc4c23)c(C)c1 [Compound 30] |  | 5.9 | 1700 |  |  | 
8 | COC(=O)c1ccc2c(c1)[nH]c1cncc(-c3ccc(C)cc3)c12 [Compound 35] |  |  | 700 |  |  | 
9 | Cc1ccc(-c2cncc3[nH]c4cccc(C)c4c23)cc1 [Compound 15] |  | 9 | 900 |  |  | 
10 | C=CC[C@@H]1/C=C(\C)C[C@H](C)C[C@H](OC)[C@H]2O[C@@](O)(C(=O)C(=O)N3CCCC[C@H]3C(=O)O[C@H](/C(C)=C/[C@@H]3CC[C@@H](O)[C@H](OC)C3)[C@H](C)[C@@H](O)CC1=O)[C@H](C)C[C@@H]2OC [FK506, reference compound] |  |  |  |  |  | 0.3
11 | Clc1ccc(-c2cncc3[nH]c4ccccc4c23)cc1 [Compound 13] | 0.8 | 8.1 | 500 |  |  | 
12 | Cc1ccc(-c2cncc3[nH]c4c(C)cccc4c23)cc1 [Compound 18] |  | 5.4 | 700 |  |  | 
13 | c1ccc2cc(-c3cncc4[nH]c5ccccc5c34)ccc2c1 [Compound 42] |  | 2.5 | 1300 |  |  | 
14 | Cc1ccnc(-c2cncc3[nH]c4ccccc4c23)c1 [Compound 40] |  | > 25 | 14400 |  |  | 
15 | c1ccc2c(c1)[nH]c1cncc(C3CCCCC3)c12 [Compound 38] |  | > 25 | 2200 |  |  | 
16 | COc1ccc(-c2cncc3[nH]c4ccc(Cl)cc4c23)cc1 [Compound 6] | 9.2 | > 25 | 14000 | 3200 |  | 
17 | COc1ccc(-c2cncc3[nH]c4ccccc4c23)c(OC)c1 [Compound 27] |  | 5.6 | 1300 |  |  | 
18 | CCOC(=O)c1ccc(-c2cncc3[nH]c4ccccc4c23)cc1 [Compound 19] |  | 6.3 | 3400 |  |  | 
19 | COc1ccc(-c2cncc3[nH]c4ccccc4c23)cc1OC [Compound 29] |  | 1.6 | 2700 |  |  | 
20 | Cn1c2ccccc2c2c(-c3ccc(C(F)(F)F)cc3)cncc21 [Compound 26] |  | > 25 | 2500 |  |  | 
21 | O=C(c1ccccc1)c1ccc(-c2cncc3[nH]c4ccccc4c23)cc1 [Compound 25] |  |  | 7700 |  |  | 
22 | COc1cc(-c2cncc3[nH]c4ccccc4c23)cc(OC)c1OC [Compound 31] |  | 2.8 | 3300 |  |  | 

Row | SMILES | IC50 [1] [µM] | IC50 [2] [µM] | IC50 [3] [nM] | IC50 (IL-2 promoter; [5]) [nM] | ALLOGENEIC CELL TRANSPLANT % [4] [%] | IC50 (IL-2 promoter; Jurkat, read-out: inhibition of luciferase activity, IC50) [nM]
23 | Cc1cnc(-c2cncc3[nH]c4ccccc4c23)s1 [Compound 41] |  | > 25 | 17700 |  |  | 
24 | c1cncc(-c2cncc3[nH]c4ccccc4c23)c1 [Compound 14] | 36 | 22 | 29000 |  |  | 
25 | Cc1cccc(-c2cncc3[nH]c4ccccc4c23)c1 [Compound 9] | 5 | > 25 | 1100 |  |  | 
26 | Oc1ccc(-c2cncc3[nH]c4ccccc4c23)cc1 [Compound 21] |  |  | 2900 |  |  | 
27 | Cc1noc(-c2cncc3[nH]c4ccccc4c23)n1 [Compound 43] |  | > 25 | > 45000 |  |  | 
28 | Clc1ccc(-c2cncc3[nH]c4ccccc4c23)cc1Cl [Compound 32] |  | 8.9 | 1500 |  |  | 
29 | COc1ccc(-c2cncc3c2c2ccccc2n3Cc2ccccc2)cc1 [Compound 10] | 27 | > 25 | 4600 |  |  | 
30 | COc1cccc(-c2cncc3[nH]c4ccccc4c23)c1 [Compound 7] | 5 | 9.8 | 700 | 3000 | 49 | 
31 | Cc1ccc(-c2cncc3[nH]c4ccccc4c23)s1 [Compound 39] |  | 9.5 | 700 |  |  | 
32 | COc1ccc(-c2cncc3[nH]c4ccccc4c23)cc1C [Compound 33] |  | 5.3 | 1000 |  |  | 
33 | CCOc1ccc(-c2cncc3[nH]c4ccccc4c23)cc1 [Compound 12] | 0.3 | 4.5 | 1200 |  | 49 | 
34 | c1ccc(-c2cncc3[nH]c4ccccc4c23)cc1 [Compound 2, 4-Phenyl-β-carboline] | 14 |  | 2200 |  |  | 
35 | Cc1ccc(-c2cncc3[nH]c4cc(C)ccc4c23)cc1 [Compound 17] |  | 4.2 | 400 |  |  | 
36 | Cc1ccc(-c2cncc3[nH]c4ccc(C)cc4c23)cc1 [Compound 16] |  | > 25 | 4500 |  |  | 
37 | CCCc1cncc2[nH]c3ccccc3c12 [Compound 3, 4-Propyl-β-carboline] | 38 | 21 | 17200 |  |  | 
38 | COc1ccccc1-c1cncc2[nH]c3ccccc3c12 [Compound 11] | 3 | 20 | 6400 |  |  | 
39 | COC(=O)c1cccc2c1[nH]c1cncc(-c3ccc(C)cc3)c12 [Compound 36] |  | 17 | 3300 |  |  | 
40 | Cc1ccc(-c2cncc3[nH]c4cc(CO)ccc4c23)cc1 [Compound 34] |  | 7.7 | 2400 |  |  | 
41 | CN(C)c1ccc(-c2cncc3[nH]c4ccccc4c23)cc1 [Compound 24] |  | 0.17 | 1600 |  |  | 
42 | COc1cc(OC)cc(-c2cncc3[nH]c4ccccc4c23)c1 [Compound 28] |  | 4.8 | 700 |  |  | 
43 | CC(C)c1noc(-c2cncc3[nH]c4ccccc4c23)n1 [Compound 44] |  | < 10 | 1300 |  |  | 
